Experimental data published in patent US5494898A, “Peptide skeletal muscle relaxants” (priority 1994, dated 1996).
Square brackets hold non-standard residues; d marks the D form. Peptide text beside a SMILES is read from it. * marks the point of attachment. dLys(Me3) = C[N+](C)(C)CCCC[C@@H](N)C(=O)O; Boc = CC(C)(C)OC(=O)*

Tests used:
neuromuscular junction [1] = assay: Rabbit paw twitch analysis; type: in vivo; conditions: for ED90 (dose required to depress twitch tension to 10% of control): anesthetized male New Zealand white rabbits, i.v. marginal ear vein
Source text: In a large series of similar relaxants, the rabbit dose is typically 125% of that in mice. The mechanism of action was also confirmed in this test by observing train-of-four and tetanus fade, post-tetanic potentiation of single twitches and administration of the anticholinesterase drug neostigmine which reverses the relaxation. Reversibility, rapid onset and short duration are important factors to the anesthesiologist.
The following is a brief description of the methodologies used in rabbits to describe neuromuscular blocking activity of the subject compounds. A more detailed description of these methods is presented in "Microcomputer Use in Measuring Onset, Duration, and Recovery from Non-Depolarizing Skeletal Muscle Relaxants in Rabbits", P.D. Thut et al., Drug development Research 5:182, 1985.
Male New Zealand white rabbits weighing between 2.5 and 3.4 kg were anesthetized with pentobarbital (30 mg/kg) and placed on their backs upon a 40° C. water filled temperature regulation pad. Following tracheostomy, the lungs were mechanically ventilated at 28 breaths per minute with room air, using an open system delivering 200 ml/stroke. This ventilation maintained pCO2 at 38 […] and pO2 at 85 mmHg. Direct arterial blood pressure was measured from the right common carotid artery. The test compounds were administered through a cannula placed in the marginal ear vein. Each foreleg was taped to a cushioned plate held in a femur clamp attached to the spinal board rack. The left central digit of each paw was connected to a force displacement transducer for measurement of muscle tension. Nerve stimulation was provided by pairs of pin electrodes placed on both sides of the ulnar nerve at the elbow of both forearms. The right ulnar nerve was stimulated at 1 Hz, 1 pps for 0.5 msec duration. The left ulnar nerve was similarly stimulated, every 15 seconds, with addition of interspersed trains-of-four and tetanizing stimuli. The parameters reported in Table II are: potency (ED90), which is the dose required to depress twitch tension to 10% of its control value; onset (T85%), which is the time from injection until 85% of the maximal drug effect is achieved; duration, which is the time from injection until the train-of-four has recovered to 75%; blood pressure (BP), which is the percentage change of pre-drug blood pressure; and heart rate (HR), which is the percentage change from pre-drug heart rate.

neuromuscular junction [2] = assay: Mouse inclined screen grip strength test (neuromuscular junction blocking activity); type: in vivo; conditions: mice on screen inclined 45°; dose required to inhibit grip strength
Experimental: The first step, in mice, establishes a preliminary estimate of the potency and efficacy of the compounds. The animals were placed on a screen, inclined 45° to the horizontal. Effective doses caused the mice to lose their grip and slide down the inclined screen. The dose in mg/kg of body weight required to inhibit grip strength in 100% of the mice tested in a dosage group is reported.

## CC(=O)O[C@H]1C[C@@H]2CC[C@@H]3[C@H](CC[C@@]4(C)[C@H]3C[C@H]([N+]3(C)CCCCC3)[C@@H]4OC(C)=O)[C@@]2(C)C[C@@H]1[N+]1(C)CCCCC1 [pancuronium]
Neuromuscular junction [1]
  ED90 (dose required to depress twitch tension to 10% of control): 0.02 mg/kg
Neuromuscular junction [1]; rabbit, equi-efficacious dose
  Duration (time from injection until train-of-four recovered to 75%): 35.50 min
  T85% onset (time from injection until 85% of maximal drug effect): 147.50 s

## COC(=O)[C@@H](CCCC[N+](C)(C)C)NC(=O)[C@@H](Cc1ccccc1)NC(=O)[C@@H](CCCC[N+](C)(C)C)NC(=O)OC(C)(C)C [Compound B] (Boc-[dLys(Me3)]-[dF]-[dLys(Me3)]-OMe)
Neuromuscular junction [1]; rabbit, equi-efficacious dose
  HR (% change from pre-drug heart rate): 8.79 % change
Neuromuscular junction [1]; rabbit, equi-efficacious dose, carotid arterial pressure
  BP (% change of pre-drug blood pressure): -18.83 % change

## CC(=O)O[C@H]1C[C@@H]2CC[C@@H]3[C@H](CC[C@@]4(C)[C@H]3C[C@H]([N+]3(C)CCCCC3)[C@@H]4OC(C)=O)[C@@]2(C)C[C@@H]1N1CCCCC1 [vecuronium]
Neuromuscular junction [2]
  Neuromuscular Junction Blocking Activity (ED90), Mouse: 0.03 mg/kg
Neuromuscular junction [1]
  ED90 (dose required to depress twitch tension to 10% of control): 0.02 mg/kg
Neuromuscular junction [1]; rabbit, equi-efficacious dose
  HR (% change from pre-drug heart rate): -9.90 % change
  T85% onset (time from injection until 85% of maximal drug effect): 97.30 s

## COc1ccc(CC2c3cc(OC)c(OC)cc3CC[N+]2(C)CCC(=O)OCCCCCOC(=O)CC[N+]2(C)CCc3cc(OC)c(OC)cc3C2Cc2ccc(OC)c(OC)c2)cc1OC (stereo not drawn) [atracurium]
Neuromuscular junction [2]
  Neuromuscular Junction Blocking Activity (ED90), Mouse: 0.63 mg/kg
Neuromuscular junction [1]
  ED90 (dose required to depress twitch tension to 10% of control): 0.05 mg/kg
Neuromuscular junction [1]; rabbit, equi-efficacious dose
  T85% onset (time from injection until 85% of maximal drug effect): 126.90 s
